Laboratory results reported in paper PMC9032346, “Identification of functionally important domains of human cytomegalovirus gO that act after trimer binding to receptors” (PLoS Pathogens, 2022).

Key:
rabbits = assay: Immunization of rabbits with ova-conjugated peptides; format: in vivo, New Zealand White rabbit; conditions: peptides conjugated onto ovalbumin, sera after 3 rounds of immunization
Excerpt: An overlapping peptide library spanning the entire length HCMV gO polypeptide from strain TR was obtained from Genscript Biotech, Piscataway, NJ. The peptides consisted of 20 amino acids in length with 7 amino acid overlap and a biotin moiety conjugated to the C-terminus. A panel of 8 a.a. peptides overlapping by 7 a.a. and a biotin moiety conjugated to the C-terminus that were derived from the protein sequences: 248-[…]-267 or 326-[…]-345 (S2 Table) were also obtained from Genscript Biotech. Peptides derived from the gO polypeptide sequence 235-[…]-267 (peptide 19/20 from overlapping library) and 326-[…]-345 (peptide 26 from overlapping library) were synthesized conjugated onto ovalbumin (ova). These ova-peptides were used to produce New Zealand White rabbit polyclonal sera by priming rabbits with ova-peptides in Freund’s adjuvant then boosting the rabbits with ova-peptides in TiterMax Gold adjuvant (Sigma, St. Louis, MO). Rabbit antibodies specific for peptide 20, 26 and ovalbumin were purified using peptides ova-20 and ova-26 or ova (without peptides) by coupling these proteins to AminoLink (Thermo Scientific).

[1] = tested on: Abs present in HCMV seropositive human serum; assay: ELISA of biotinylated gO peptides with pooled human transplant sera; format: binding; conditions: biotin peptides 0.5 mM on streptavidin plates, pool of 5 sera diluted to NT100
Method: Fig 5 gO peptides recognized by Abs present in HCMV seropositive human serum. The panel of gO peptides with C-terminal biotin tags were incubated in the wells of streptavidin-coated ELISA plates. The wells were washed and then incubated with a pool of 5 different human sera from transplant patients that had been diluted to the NT100 titers. The plates were washed and incubated with goat-anti human-IgG-HRP for 1 h at room temperature, washed, and incubated with Turbo-TMB substrate. Control conditions included no peptide plus human sera (red bar) and wells coated with soluble trimer (instead of peptides) and human sera (green bar). The absorbance values are indicated on the y-axis and the numbers of the individual gO peptides are indicated on the x-axis.
For cell-based ELISA assays, ARPE-19 epithelial or fibroblast cells in 96-well plates were fixed with 4% paraformaldehyde, washed with PBS supplemented with 0.1M glycine pH.7.2, then washed with PBS plus 2% BSA and incubated with soluble trimers or gH/gL complexes at 10 μg/ml (or 20 μg/ml in the case of gO-417) in PBS with 2% BSA at room temperature for 1 h. […] The colorometric reaction was stopped by adding 100 μl of 1M sulfuric acid to the wells and then the substrate development was read in a Molecular Dynamics precision plate reader at a wavelength of 450 nm.

[2] = tested on: neutralizing Abs from human serum; assay: Depletion of neutralizing Abs from human sera, read out by HCMV neutralization on ARPE-19; format: cell-based
Method: Fig 7 gO peptides 20 and 26 deplete neutralizing Abs from human serum. (A) Pooled HCMV seropositive serum was diluted to (NT100) titers then incubated with either no protein, 1μg of soluble trimer, or gO peptides (with biotin): 20, 26, 32 or 33 (each at 0.5 mM) for 1 h at 37°C. […] The trimer was removed using nickel-agarose and peptides removed using streptavidin-agarose. The remaining Abs were tested in neutralization assays involving HCMV (BADrUL131) and ARPE-19 epithelial cells. The relative infectivity of HCMV after incubation with these sera was determined by counting GFP+ (infected) cells after 24 h of infection and compared to the numbers of infected cells following incubation of HCMV with similarly diluted sera from HCMV seronegative donors (sero-neg) Data was collected from three separate wells for each condition. (B and C) Two panels of 8 a.a. peptides with 7 a.a. overlap were derived from peptide 20 (B) or peptide 26 (C). These peptides were tested in depletion assays as in panel A. The relative infectivity of HCMV (BADrUL131) on ARPE-19 epithelial cells was determined and normalized to the level of HCMV infectivity with depletions performed with soluble trimer. Data was collected from a randomly selected field of the same surface area from each well.
These sera were then tested in HCMV neutralization assays as described above.

Sequence: FRVPKYINGTKLKNTMRKLKRKQAPVKEQSEKK [Peptide 19/20, peptide containing all of peptides 19 and 20 (a.a. 235-267), conjugated onto ovalbumin]
- induction of gO-specific NAbs in rabbits (rabbits): able to induce gO-specific NAbs

Sequence: LRDLATWVYTTLRYRQNPFC [Peptide 26, gO (TR) a.a; 326-345, C-terminal biotin; also ova-conjugated for immunization]
- binding of IgG from human transplant sera [1]: binding higher quantities of IgG compared with other peptides
- induction of gO-specific NAbs in rabbits (rabbits): able to induce gO-specific NAbs
- HCMV infectivity with sera after depletion ([2]; pooled human transplant sera at NT100, 1 μg soluble trimer or 0.5 mM biotin peptide, 1 h 37°C, relative to seronegative sera, three wells): 45%

Sequence: TTTPYSPYTTSTALNVTTNA [Peptide 22, gO (TR) a.a; 274-293, C-terminal biotin; negative control in depletion]
- binding of IgG from human transplant sera [1]: did not bind substantial IgG
- depletion of NAbs from human sera ([2]; pooled sera at NT100, 0.5 mM biotin peptide): retained complete neutralizing capacity
